{"source": "patent US20030165854A1", "about": "“Marker genes responding to treatment with toxins” (priority 2000, published 2003)", "key": {"[1]": {"tested_on": "rat liver cDNAs SEQ ID NOs: 1-61", "assay_type": "in vivo, Han/Wistar rat", "settings": "Strain HW"}, "[2]": {"tested_on": "rat liver cDNAs SEQ ID NOs: 1-61", "assay_type": "in vivo, Han/Wistar rat", "settings": "Strain HW, Sex F"}, "[3]": {"tested_on": "rat liver cDNAs SEQ ID NOs: 62-202", "assay": "Abundance of cDNA clones in toxin-treated rat liver cDNA libraries (transcript imaging), Sprague-Dawley", "assay_type": "in vivo", "settings": "Strain SD", "procedure": "Columns 1 and 2 show the SEQ ID NO and Clone ID of the rat cDNA clone, respectively.\nAbundance of a clone was determined by counting the number of clones present in a master cluster.\nAbundance of a particular cDNA in the library profile was determined by summing the total number of copies of the clones present in the master cluster in that library."}}}
{"smiles": "CC(C)OC(=O)C(C)(C)Oc1ccc(C(=O)c2ccc(Cl)cc2)cc1", "note": "[Feno, fenofibrate]", "values": [{"measurement": "Maximum Abundance, SEQ ID NO 20, Clone ID 700063569", "setting": "[1]", "value": 3}, {"measurement": "Maximum Abundance, SEQ ID NO 30, Clone ID 700140375", "setting": "[1]", "value": 3}, {"measurement": "Maximum Abundance, SEQ ID NO 31, Clone ID 700140450", "setting": "[1]", "value": 8}, {"measurement": "Maximum Abundance, SEQ ID NO 35, Clone ID 700179766", "setting": "[1]", "value": 3}, {"measurement": "Maximum Abundance, SEQ ID NO 37, Clone ID 700182016", "setting": "[1]", "value": 3}, {"measurement": "Maximum Abundance, SEQ ID NO 38, Clone ID 700185871", "setting": "[1]", "value": 3}, {"measurement": "Maximum Abundance, SEQ ID NO 39, Clone ID 700198357", "setting": "[1]", "value": 3}, {"measurement": "Maximum Abundance, SEQ ID NO 40, Clone ID 700230123", "setting": "[1]", "value": 4}, {"measurement": "Maximum Abundance, SEQ ID NO 42, Clone ID 700250877", "setting": "[1]", "value": 3}, {"measurement": "Maximum Abundance, SEQ ID NO 45, Clone ID 700305380", "setting": "[1]", "value": 4}, {"measurement": "Maximum Abundance, SEQ ID NO 49, Clone ID 700478138", "setting": "[1]", "value": 5}, {"measurement": "Maximum Abundance, SEQ ID NO 53, Clone ID 700818852", "setting": "[1]", "value": 5}, {"measurement": "Maximum Abundance, SEQ ID NO 54, Clone ID 700937735", "setting": "[1]", "value": 8}, {"measurement": "Maximum Abundance, SEQ ID NO 55, Clone ID 701197728", "setting": "[1]", "value": 3}, {"measurement": "Maximum Abundance, SEQ ID NO 60, Clone ID 701597659", "setting": "[1]", "value": 3}, {"measurement": "Maximum Abundance, SEQ ID NO 13, Clone ID 700135749", "setting": "[2]", "value": 4}]}
{"smiles": "NN", "note": "[Hydra, hydrazine]", "values": [{"measurement": "Maximum Abundance, SEQ ID NO 17, Clone ID 700059927", "setting": "[1]", "value": 4}, {"measurement": "Maximum Abundance, SEQ ID NO 23, Clone ID 700067778", "setting": "[1]", "value": 3}, {"measurement": "Maximum Abundance, SEQ ID NO 24, Clone ID 700123633", "setting": "[1]", "value": 3}, {"measurement": "Maximum Abundance, SEQ ID NO 28, Clone ID 700135850", "setting": "[1]", "value": 3}, {"measurement": "Maximum Abundance, SEQ ID NO 32, Clone ID 700144406", "setting": "[1]", "value": 4}, {"measurement": "Maximum Abundance, SEQ ID NO 33, Clone ID 700175249", "setting": "[1]", "value": 7}, {"measurement": "Maximum Abundance, SEQ ID NO 61, Clone ID 701637512", "setting": "[1]", "value": 4}, {"measurement": "Maximum Abundance, SEQ ID NO 12, Clone ID 700062506", "setting": "[2]", "value": 3}, {"measurement": "Maximum Abundance, SEQ ID NO 13, Clone ID 700135749", "setting": "[2]", "value": 4}]}
{"smiles": "c1ccc2c(c1)cc1ccc3cccc4ccc2c1c34", "note": "[benzo(a)pyrene]", "values": [{"measurement": "Maximum Abundance, SEQ ID NO 6, Clone ID 700062791", "setting": "[1]", "value": 4}, {"measurement": "Maximum Abundance, SEQ ID NO 7, Clone ID 700250279", "setting": "[1]", "value": 6}, {"measurement": "Maximum Abundance, SEQ ID NO 8, Clone ID 700312413", "setting": "[1]", "value": 4}, {"measurement": "Maximum Abundance, SEQ ID NO 9, Clone ID 700308908", "setting": "[1]", "value": 6}, {"measurement": "Maximum Abundance, SEQ ID NO 76, Clone ID 700059750", "setting": "[3]", "value": 3}, {"measurement": "Maximum Abundance, SEQ ID NO 77, Clone ID 700123903", "setting": "[3]", "value": 3}, {"measurement": "Maximum Abundance, SEQ ID NO 78, Clone ID 700135554", "setting": "[3]", "value": 3}, {"measurement": "Maximum Abundance, SEQ ID NO 79, Clone ID 700175783", "setting": "[3]", "value": 4}, {"measurement": "Maximum Abundance, SEQ ID NO 80, Clone ID 700176825", "setting": "[3]", "value": 4}, {"measurement": "Maximum Abundance, SEQ ID NO 81, Clone ID 700177142", "setting": "[3]", "value": 4}, {"measurement": "Maximum Abundance, SEQ ID NO 82, Clone ID 700185570", "setting": "[3]", "value": 3}, {"measurement": "Maximum Abundance, SEQ ID NO 83, Clone ID 700244879", "setting": "[3]", "value": 3}, {"measurement": "Maximum Abundance, SEQ ID NO 84, Clone ID 700246085", "setting": "[3]", "value": 4}, {"measurement": "Maximum Abundance, SEQ ID NO 85, Clone ID 700302152", "setting": "[3]", "value": 10}, {"measurement": "Maximum Abundance, SEQ ID NO 86, Clone ID 700305538", "setting": "[3]", "value": 13}, {"measurement": "Maximum Abundance, SEQ ID NO 87, Clone ID 700307329", "setting": "[3]", "value": 3}, {"measurement": "Maximum Abundance, SEQ ID NO 88, Clone ID 700323326", "setting": "[3]", "value": 4}, {"measurement": "Maximum Abundance, SEQ ID NO 89, Clone ID 700328990", "setting": "[3]", "value": 4}, {"measurement": "Maximum Abundance, SEQ ID NO 90, Clone ID 700330391", "setting": "[3]", "value": 3}, {"measurement": "Maximum Abundance, SEQ ID NO 91, Clone ID 700363445", "setting": "[3]", "value": 6}, {"measurement": "Maximum Abundance, SEQ ID NO 92, Clone ID 700480903", "setting": "[3]", "value": 3}, {"measurement": "Maximum Abundance, SEQ ID NO 93, Clone ID 700482908", "setting": "[3]", "value": 3}, {"measurement": "Maximum Abundance, SEQ ID NO 94, Clone ID 700935261", "setting": "[3]", "value": 3}, {"measurement": "Maximum Abundance, SEQ ID NO 95, Clone ID 700939101", "setting": "[3]", "value": 3}, {"measurement": "Maximum Abundance, SEQ ID NO 96, Clone ID 700950626", "setting": "[3]", "value": 3}, {"measurement": "Maximum Abundance, SEQ ID NO 97, Clone ID 701316308", "setting": "[3]", "value": 3}, {"measurement": "Maximum Abundance, SEQ ID NO 98, Clone ID 701316810", "setting": "[3]", "value": 3}, {"measurement": "Maximum Abundance, SEQ ID NO 99, Clone ID 701327688", "setting": "[3]", "value": 3}, {"measurement": "Maximum Abundance, SEQ ID NO 100, Clone ID 701337820", "setting": "[3]", "value": 3}, {"measurement": "Maximum Abundance, SEQ ID NO 101, Clone ID 701432276", "setting": "[3]", "value": 4}, {"measurement": "Maximum Abundance, SEQ ID NO 102, Clone ID 701432317", "setting": "[3]", "value": 3}, {"measurement": "Maximum Abundance, SEQ ID NO 103, Clone ID 701472012", "setting": "[3]", "value": 3}, {"measurement": "Maximum Abundance, SEQ ID NO 104, Clone ID 701472036", "setting": "[3]", "value": 3}, {"measurement": "Maximum Abundance, SEQ ID NO 105, Clone ID 701517108", "setting": "[3]", "value": 3}, {"measurement": "Maximum Abundance, SEQ ID NO 106, Clone ID 701710808", "setting": "[3]", "value": 4}, {"measurement": "Maximum Abundance, SEQ ID NO 107, Clone ID 701241446", "setting": "[3]", "value": 3}, {"measurement": "Maximum Abundance, SEQ ID NO 108, Clone ID 701711993", "setting": "[3]", "value": 5}, {"measurement": "Maximum Abundance, SEQ ID NO 110, Clone ID 700192259", "setting": "[3]", "value": 5}, {"measurement": "Maximum Abundance, SEQ ID NO 111, Clone ID 700269330", "setting": "[3]", "value": 4}, {"measurement": "Maximum Abundance, SEQ ID NO 112, Clone ID 701317696", "setting": "[3]", "value": 5}, {"measurement": "Maximum Abundance, SEQ ID NO 186, Clone ID 700068662", "setting": "[3]", "value": 6}, {"measurement": "Maximum Abundance, SEQ ID NO 187, Clone ID 700933309", "setting": "[3]", "value": 5}, {"measurement": "Maximum Abundance, SEQ ID NO 201, Clone ID 700062503", "setting": "[3]", "value": 3}, {"measurement": "Maximum Abundance, SEQ ID NO 202, Clone ID 700490891", "setting": "[3]", "value": 4}, {"measurement": "Maximum Abundance, SEQ ID NO 74, Clone ID 700137978", "setting": "[3]; Sex F", "value": 7}, {"measurement": "Maximum Abundance, SEQ ID NO 75, Clone ID 701709967", "setting": "[3]; Sex F", "value": 4}, {"measurement": "Maximum Abundance, SEQ ID NO 188, Clone ID 700024288", "setting": "[3]; Sex F", "value": 2}, {"measurement": "Maximum Abundance, SEQ ID NO 190, Clone ID 700066933", "setting": "[3]; Sex F", "value": 2}, {"measurement": "Maximum Abundance, SEQ ID NO 191, Clone ID 700146747", "setting": "[3]; Sex F", "value": 3}, {"measurement": "Maximum Abundance, SEQ ID NO 193, Clone ID 700858043", "setting": "[3]; Sex F", "value": 1}, {"measurement": "Maximum Abundance, SEQ ID NO 109, Clone ID 700250903", "setting": "[3]; Sex M", "value": 11}, {"measurement": "Maximum Abundance, SEQ ID NO 196, Clone ID 700062747", "setting": "[3]; Sex M", "value": 2}, {"measurement": "Maximum Abundance, SEQ ID NO 197, Clone ID 700124248", "setting": "[3]; Sex M", "value": 3}, {"measurement": "Maximum Abundance, SEQ ID NO 200, Clone ID 700282789", "setting": "[3]; Sex M", "value": 3}]}
